pIC50: −log10 of the molar value.
How the values were obtained:
Test in all cases: cells
NB12 = format: functional, cell-based; conditions: Homo sapiens
Description: SANGER: Inhibition of human NB12 cell growth in a cell viability assay.

KYSE-70 cell line = format: functional, cell-based; conditions: Homo sapiens
Description: SANGER: Inhibition of human KYSE-70 cell growth in a cell viability assay.

LXF-289 cell line = format: functional, cell-based; conditions: Homo sapiens
Description: SANGER: Inhibition of human LXF-289 cell growth in a cell viability assay.

KYSE-520 cell line = format: functional, cell-based; conditions: Homo sapiens
Description: SANGER: Inhibition of human KYSE-520 cell growth in a cell viability assay.

KU812 cell line = format: functional, cell-based, Homo sapiens; conditions: Homo sapiens, KU812
Description: SANGER: Inhibition of human KU812 cell growth in a cell viability assay.

A253 cell line = format: functional, cell-based, Homo sapiens; conditions: Homo sapiens, A253
Description: SANGER: Inhibition of human A253 cell growth in a cell viability assay.

KYSE-150 cell line = format: functional, cell-based; conditions: Homo sapiens
Description: SANGER: Inhibition of human KYSE-150 cell growth in a cell viability assay.

LCLC-103H cell line = format: functional, cell-based; conditions: Homo sapiens
Description: SANGER: Inhibition of human LCLC-103H cell growth in a cell viability assay.

MHH-ES-1 = format: functional, cell-based; conditions: Homo sapiens
Description: SANGER: Inhibition of human MHH-ES-1 cell growth in a cell viability assay.

NB69 = format: functional, cell-based, Homo sapiens; conditions: Homo sapiens, NB69
Description: SANGER: Inhibition of human NB69 cell growth in a cell viability assay.

COLO-800 = format: functional, cell-based, Homo sapiens; conditions: Homo sapiens, COLO-800
Description: SANGER: Inhibition of human COLO-800 cell growth in a cell viability assay.

## O=C1/C(=C/c2cccs2)CC/C1=C\c1cccs1
NB12
  pIC50: 5.88

## O=C(NOC[C@H](O)CO)c1ccc(F)c(F)c1Nc1ccc(I)cc1F [MIRDAMETINIB]
KYSE-70 cell line
  pIC50: < 5.70
LXF-289 cell line
  pIC50: < 5.70
KYSE-520 cell line
  pIC50: 6.63
KU812 cell line
  pIC50: 6.69
A253 cell line
  pIC50: 5.90
KYSE-150 cell line
  pIC50: 6.14
LCLC-103H cell line
  pIC50: < 5.70

## CNCc1ccc(-c2[nH]c3cc(F)cc4c3c2CCNC4=O)cc1 [RUCAPARIB]
MHH-ES-1
  pIC50: 6.30
NB69
  pIC50: 6.02
COLO-800
  pIC50: 6.20

Reference: ChEMBL document CHEMBL1201861, “Genomics of Drug Sensitity in Cancer screening data, Wellcome Trust Sanger Institute”
